{
  "source": "patent US10059699B2",
  "about": "“Tetrahydroquinoline derivatives as bromodomain inhibitors” (GlaxoSmithKline Intellectual Property (No.2) Limited, priority 2014, dated 2018)",
  "key": {"[1]": {"system": "IL-6", "test": "LPS induced secretion of IL-6 from whole blood", "assay_type": "cell-based", "settings": "human whole blood, LPS 200 ng/mL, n=6; read-out: pIC50, LPS induced IL-6 secretion (converted)", "description": "Activation in whole blood of predominantly monocytic cells by agonists of toll-like receptors such as bacterial lipopolysaccharide (LPS) results in production of key inflammatory mediators, including IL-6. Such pathways are widely considered to be central to the pathophysiology of a range of auto-immune and inflammatory disorders.\nHuman Whole Blood from 2 donors (n=2) is collected using Sodium heparin as anti-coagulent (Wockhardt cat# FP1712) (10 units of heparin/mL of blood). Compounds were prepared as [10 mM] DMSO stocks and then diluted such that the top starting concentration was [1.4 mM] followed by 8×3-fold dilutions in DMSO. Final assay concentrations start at [10 μM] for all compounds. 1 μL diluted compound was added per well in a 96-well U bottom plate. 1 μL DMSO only was added to column 10 (+ve control) and 1-((2S,4R)-2-methyl-4-(phenylamino)-6-(4-(piperidin-1-ylmethyl)phenyl)-3,4-dihydroquinolin-1(2H)-yl)ethanone (for a preparation see Compound 28, J. Med. Chem. 2014, 57, 8111-8131, 1 μL, 1.4 mM) added to column 11 (−ve control). […] 150 μL of 2×MSD Read Buffer T (stock 4×MSD Read Buffer T was diluted 50:50 with de-ionised water) was then added to each well and the plates read on the MSD Sector Imager 6000. Concentration response curves for each compound were generated from the data using internal XC50 analysis and an IC50 value was calculated."}, "[2]": {"system": "interleukin-6 (IL-6)", "test": "LPS induced IL-6 production mouse assay", "assay_type": "in vivo", "settings": "male CD1 mice; for IL-6 Cmax: LPS iv 1 hour after dosing", "protocol": "The compound was assayed for its ability to inhibit lipopolysaccharide (LPS) induced interleukin-6 (IL-6) production in mice. Male CD1 mice (Charles River Laboratories, 5 per group) received an intravenous challenge of LPS (100 μg/kg, L3192 E coli 0127:B8) 1 hour after oral administration of compound (in 1% (w/v) methylcellulose, aq 400). Serial blood samples were collected via teil vein up to 4 hours or via cardiac puncture at 6 hours (terminal sample) post oral drug administration and the serum harvested from the blood samples was frozen at −80° C. On the day of analysis, the serum was thawed to room temperature and levels of IL-6 were measured using single-spot cytokine assay plates (K152QXD) from Meso Scale Discovery (MSD, Gaithersburg, Md.). The levels of IL-6 were detected according to the manufacturer's protocol (MSD) and read on a SECTOR imager 6000 (MSD). The mean IL-6 Cmax and AUC0-t values were generated using WinNonlin Phoenix version 6.3 and the mean percent Cmax and AUC0-t IL-6 reduction following treatment with compound was calculated compared to the corresponding vehicle treated group. Levels of significance were calculated by analysis of variance (ANOVA) followed by Dunnett's multiple comparison t-test using Graphpad Prism version 5.04 (Graphpad Software, San Diego, Calif.). Statistical differences were determined as *P<0.05, **P<0.01."}, "[3]": {"system": "Immunoglobulin-1 (IgG1)", "test": "TNP-KLH induced IgG1 production mouse assay", "assay_type": "in vivo, mice", "settings": "30 mg/kg oral; for Day 14 IgG1: 14 day dosing, male CD1 mice; for % reduction in IgG1 from vehicle: day 14", "protocol": "The compound was assayed for its ability to inhibit trinitrophenol-keyhole limpet hemocyanin (TNP-KLH) induced Immunoglobulin-1 (IgG1) production in mice. Male CD1 mice (Charles River Laboratories, 8 per group) received a single oral administration of compound (in 1% (w/v) methylcellulose, aq 400) either once every day (QD), once every other day (QOD) or once every 72 hours (QOED) over a 14 day dosing period. On day 1 of the study, each mouse received a single bolus intraperitoneal (ip) administration of TNP-KLH (100 μg/kg, T-5060-25, Lot #021562-06) 1 hour after oral administration of compound. Serial blood samples were collected at 1 hour post oral compound administration via tail veil on days 1, 4, 7, 9 and 11 or via cardiac puncture (terminal sample) on day 14 and the serum harvested from the blood samples was frozen at −80° C. On the day of analysis, the serum was thawed to room temperature and levels of IgG1 were measured using a TNP ELISA (developed in-house) and read on a SpectraMax 190 spectrophotometer (Molecular Devices, CA). The mean IgG1 values were generated and the mean percent IgG1 reduction on day 14 following treatment with compound was calculated compared to the corresponding vehicle treated group. Levels of significance were calculated by analysis of variance (ANOVA) followed by Dunnett's multiple comparison t-test using Graphpad Prism version 5.04 (Graphpad Software, San Diego, Calif.). Statistical differences were determined as […]."}},
  "note": "Marks after values point to notes of the source that are not given here.",
  "data": [
    {"smiles": "CC(=O)N1c2ccc(C(N)=O)cc2[C@H](Nc2ncc(Cl)cn2)C[C@@H]1C", "note": "[Example 14, (2S,4R)-1-acetyl-4-((5-chloropyrimidin-2-yl)amino)-2-methyl-1,2,3,4-tetrahydroquinoline-6-carboxamide]", "values": [
      {"measurement": "IC50", "setting": "[1]", "result": 200, "unit": "nM"},
      {"measurement": "% reduction in IL-6 AUC from vehicle", "setting": "[2]; 1 mg/kg oral", "result": "49* %"},
      {"measurement": "% reduction in IL-6 Cmax from vehicle", "setting": "[2]; 1 mg/kg oral", "result": 58, "unit": "%"},
      {"measurement": "IL-6 AUC0-t", "setting": "[2]; 1 mg/kg oral", "result": 554, "unit": "ng·h/mL"},
      {"measurement": "IL-6 Cmax", "setting": "[2]; 1 mg/kg oral", "result": 291, "unit": "ng/mL"},
      {"measurement": "% reduction in IL-6 AUC from vehicle", "setting": "[2]; 3 mg/kg oral", "result": "55** %"},
      {"measurement": "% reduction in IL-6 Cmax from vehicle", "setting": "[2]; 3 mg/kg oral", "result": 48, "unit": "%"},
      {"measurement": "IL-6 AUC0-t", "setting": "[2]; 3 mg/kg oral", "result": 495, "unit": "ng·h/mL"},
      {"measurement": "IL-6 Cmax", "setting": "[2]; 3 mg/kg oral", "result": 357, "unit": "ng/mL"},
      {"measurement": "% reduction in IL-6 AUC from vehicle", "setting": "[2]; 10 mg/kg oral", "result": "48* %"},
      {"measurement": "% reduction in IL-6 Cmax from vehicle", "setting": "[2]; 10 mg/kg oral", "result": "62* %"},
      {"measurement": "IL-6 AUC0-t", "setting": "[2]; 10 mg/kg oral", "result": 563, "unit": "ng·h/mL"},
      {"measurement": "IL-6 Cmax", "setting": "[2]; 10 mg/kg oral", "result": 258, "unit": "ng/mL"},
      {"measurement": "Day 14 IgG1", "setting": "[3]; QD", "result": 127, "unit": "ng/mL"},
      {"measurement": "% reduction in IgG1 from vehicle", "setting": "[3]; QD", "result": "98*** %"},
      {"measurement": "Day 14 IgG1", "setting": "[3]; QOD", "result": 373, "unit": "ng/mL"},
      {"measurement": "% reduction in IgG1 from vehicle", "setting": "[3]; QOD", "result": "93*** %"},
      {"measurement": "Day 14 IgG1", "setting": "[3]; QOED (every 72 hours)", "result": 3162, "unit": "ng/mL"},
      {"measurement": "% reduction in IgG1 from vehicle", "setting": "[3]", "result": 41, "unit": "%"}
    ]}
  ]
}
